Experiment [1] relates to high fat-fed mice. Description: Intraperitoneal artemether, cold exposure and UCP1 immunohistochemistry of subcutaneous fat in high fat-fed mice. In kind it is in vivo, Male C57BL/6J mice. Particulars: high-fat diet, intraperitoneal 20 mg/kg twice a week, eight weeks. The protocol:
The mice were breeded in the SPF animal laboratory of the Laboratory Animal Center of Fudan University at a room temperature of 21° C.-23° C. with a 12-hour light/dark cycle. […] When the mice were grown to 8-week old, they were randomly divided into a control group and an administration group, with 8 mice in each group. While the mice were fed with a high-fat diet, artemether was injected intraperitoneally. Artemether for intraperitoneal injection was stored at 4° C. in coconut oil at a storage concentration of 6 mg/ml (20 mMol/L), and protected from light. Mice in administration group were injected with artemether at a dose of 20 mg/kg weight. Administration was twice a week for eight weeks. Mice were fasted and housed in a breeding box at 4° C. The rectal temperature was measured every 2 hours. The mice were sacrificed by cervical dislocation after 6 hours, and the inguinal fat was removed for histological analysis. The histological analysis including tissue fixation, paraffin embedding, sectioning and immunohistochemistry experiment of UCP1 was commissioned by Shanghai Saige Biotech Co., Ltd.

Experiment [2] has as its system high fat-fed mice. Description: Subcutaneous artemether, adipose tissue in high fat-fed mice. The settings on record: high-fat diet, subcutaneous injection, eight weeks. It counts as in vivo, Male C57BL/6J mice. The protocol:
The mice were breeded in the SPF animal laboratory of the Laboratory Animal Center of Fudan University at a room temperature of 21° C.-23° C. with a 12-hour light/dark cycle. […] When the mice were grown to 8-week old, they were randomly divided into a control group and an administration group, with 8 mice in each group. While the mice were fed with a high-fat diet, artemether was injected subcutaneously. Artemether was diluted in PBS at a concentration of […], and injected into bilateral inguinal region, with 200 μl being injected into each side. Mice in control group were injected with the same volume of PBS. Administration was continued for eight weeks. The mice were sacrificed by cervical dislocation and were dissected, and inguinal fat (Inguinal, subcutaneous fat), epididymal fat (Gonadal, visceral fat) and brown fat in the interscapular region (BAT, classic brown fat) were removed, weighed and fixed. The histological analysis of adipose tissue was commissioned by Shanghai Saige Biotech Co., Ltd. The histological analysis process included the steps of fixing, paraffin embedding, sectioning and HE staining.

The test system of experiment [3] is BMP4-directed C3H10T1/2. Description: Artemisinin and analogues on BMP4-directed C3H10T1/2 (morphology, Western blot). It counts as cell-based. Particulars: concentration shown in FIG. 8, from Day 0 of differentiation; vs control. The protocol: 4.3.1 Culture and Differentiation of C3H10T1/2 According to Method 2.4.1.
Artemisinin, artesunate and dihydroartemisinin were stored in DMSO at a storage concentration of 10 mMol/L. The concentration shown in FIG. 8 was added on Day 0 of differentiation. Fresh medium was replaced every two days, and the corresponding concentrations of compounds were added until the cells differentiated to mature.
The method for extracting C3H10T1/2 cell total protein was the same as 2.4.3;
Western blot method and catalog number of antibody was the same as 2.4.4.

Experiment [4] concerns BMP4-directed C3H10T1/2. In words: Artemether on BMP4-directed C3H10T1/2 differentiation (morphology, Western blot, MitoTracker Green). It counts as cell-based. The procedure: 7.5×10^5 C3H10T1/2 were seeded in a 3.5 cm cell culture dish, and cultured for 3-5 days in a maintenance medium. On the next day of seeding, BMP4 (at a final concentration of 20 ng/ml) was added to the medium to allow the cells to proliferate to contact inhibition. Two days after the contact inhibition was reached, the medium was changed to induced differentiation medium, and the induced mixture (0.5 mMol/L Mix, 1 μMol/L Dex, 1 ng/ml insulin, 100 nMol/L indometacin, 1 nM T3) was added at the same time. This day was defined as Day 0 of differentiation. After 2 days of induction, fresh induced differentiation medium was replaced, and 1 ng/ml insulin and 1 nMol/L T3 were added. After another 2 days of culture, the fresh medium was replaced every other day until the culture was differentiated to Day 8 at which time the cells were mature. At this time, the differentiated and mature cells were white adipocytes.
7.5×10^5 C3H10T1/2 were seeded in a 3.5 cm cell culture dish, and cultured for 3-5 days in a maintenance medium. On the next day of seeding, BMP7 (at a final concentration of 100 ng/ml) was added to the medium to allow the cells to proliferate to contact inhibition. Two days after the contact inhibition was reached, the medium was changed to induced differentiation medium, and the induced mixture (0.5 mM Mix, 1 μM Dex, 1 ng/ml insulin, 100 nM indometacin, 1 nM T3) was added at the same time. This day was defined as Day 0 of differentiation. After 2 days of induction, fresh induced differentiation medium was replaced, and 1 ng/ml insulin and 1 nM T3 were added. After another 2 days of culture, the fresh medium was replaced every other day until the culture was differentiated to Day 8 at which time the cells were mature. At this time, the cells differentiated to mature were brown adipocytes.
On Day 0 of differentiation, that is, when the induced differentiation mixture was added, the compound was added to the medium at a storage concentration of 10 mMol/L, and the final concentrations were […], respectively. When the fresh medium was replaced, the corresponding compound was supplemented, and the compound was always with the cells until the cells differentiated to mature.
C3H10T1/2 differentiated to mature was induced in a 3.5 cm culture dish, with the method of differentiation referring to Method 2.4.1. 300 μl Trizol was added to fully lyse the cells, and the lysate was transferred into a 1.5 ml centrifuge tube and heated at 100° C. for 10 min. The lysate was centrifuged at 13000 g for 10 min at 4° C., the lipid in the upper layer was removed, and the clarified lysate in the middle layer was transferred into a new centrifuge tube. 2.5 μl lysate was taken and quantified by BCA method, and 200 μl lysate was mixed with 50 μl loading buffer, heated at 100° C. for 10 min, and stored at −20° C. until use.
[…] C3HOT1/2 protein was loaded onto 10% polyacrylamide gel, and electrophoresis was carried out, with electrophoresis being carried out on base gel at 80V, and on separating gel at 100V, until the target band was separated. The protein was transferred to a PVDF membrane in an ice bath at 100 V for 100 min. After the transfer was completed, it was blocked for 1 hr in 5% skim milk prepared with TBST (TBS buffer+0.5% Tween), and incubated with specific antibodies overnight at 4° C. The next day, the PVDF membrane was washed three times with TBST at room temperature for 10 min, incubated with the corresponding secondary antibody at room temperature for 1 hr, then washed three times with TBST at the same condition as that of primary antibody, incubated with chemiluminescent reagent at room temperature for 1 min, detected with ImageQuant LAS4000 Mini Automatic chemiluminescence apparatus and exposed, and the results were recorded.
C3H10T1/2 differentiated to mature was induced in a 3.5 cm culture dish. The medium was removed and 1 ml PBS was added. […]
Background: In western blotting, separated proteins are transferred to a membrane and probed.

Setting [5] is: artemether 5, 10, 15 Mol/L, Western blot, β-actin reference, concentration-dependent tendency.

Turning to `CO[C@H]1O[C@@H]2O[C@@]3(C)CC[C@H]4[C@H](C)CC[C@@H]([C@H]1C)[C@@]24OO3` [artemether], the “body temperature in an environment of 4° C.” value in experiment [1] is listed as “significantly higher than that of mice in control group”. In addition, the “UCP1 expression in subcutaneous fat (immunohistochemistry)” value in experiment [1] (after 6 hours at 4° C.) was “exhibited significant UCP1 expression”. For the same compound, in experiment [2], the “adipocyte size (sectioning and HE staining)” value was “significantly smaller than that of mice in control group”; the “volume of adipose tissue (inguinal fat, epididymal fat and brown fat)” value was “significantly smaller than that of mice in control group”; the “weight of adipose tissue (inguinal fat, epididymal fat and brown fat)” value is given as “significantly smaller than that of mice in control group”. Further, the “cell morphology of C3H10T1/2” value in experiment [3] is given as “exhibited brown adipocyte-like characteristics”. Besides, in experiment [4] (setting [5]), the “protein level of PGC1α” value was “increased”, the “protein level of PRDM16” value is listed as “increased” and the “protein level of UCP1” value is “increased”. For the same compound, in experiment [4] (artemether 5, 10, 15 μMol/L, Western blot, β-actin reference, concentration-dependent tendency), the “protein level of CytoC” value is “increased”. For the same compound, the “mitochondrial biosynthesis (MitoTracker Green)” value in experiment [4] (artemether 15 μMol/L) is on record as “significantly enhanced”. For the same compound, the “cell morphology of BMP4-directed C3H10T1/2” value in experiment [4] (artemether 15 μMol/L during differentiation, similar to BMP7-directed cell morphology) is listed as “exhibited brown fat-like characteristics”.
